Legend:
Assay type in all cases: toxicity, cell-based
[1] = system: HEK-293T; test: Incucyte cell viability with HEK293T; details: human, 10 µM, compound concentration 10 uM
[2] = system: Fibroblast; test: Incucyte cell viability with human fibroblast; details: 10 µM, compound concentration 10 uM
[3] = system: U2OS; test: Incucyte cell viability with U2OS; details: human, 10 µM, compound concentration 10 uM
[4] = 0 h, replicate number 2, timepoint 0 hours
[5] = 6 h, replicate number 1, timepoint 6 hours
[6] = 6 h, replicate number 2, timepoint 6 hours
[7] = 12 h, replicate number 1, timepoint 12 hours
[8] = 12 h, replicate number 2, timepoint 12 hours
[9] = 18 h, replicate number 1, timepoint 18 hours
[10] = 18 h, replicate number 2, timepoint 18 hours
[11] = 24 h, replicate number 1, timepoint 24 hours
[12] = 24 h, replicate number 2, timepoint 24 hours
[13] = 0 h, replicate number 1, timepoint 0 hours
Also: unitless GR value; below 1 slowed growth and below 0 cell loss.

Row | SMILES | Growth Rate [1, 4] | Growth Rate [1, 5] | Growth Rate [1, 6] | Growth Rate [1, 7] | Growth Rate [1, 8] | Growth Rate [1, 9] | Growth Rate [1, 11] | Growth Rate [2, 13] | Growth Rate [2, 4] | Growth Rate [2, 5] | Growth Rate [2, 7] | Growth Rate [2, 9] | Growth Rate [2, 11] | Growth Rate [3, 4] | Growth Rate [3, 5] | Growth Rate [3, 6] | Growth Rate [3, 8] | Growth Rate [3, 9] | Growth Rate [3, 10] | Growth Rate [3, 11] | further results
1 | Cl.FC(F)(F)c1ccc(N2CCNCC2)nc1Cl | 0.55 | 0.75 | 0.92 | 0.89 | 0.95 | 0.79 | 0.75 | 0.87 | 0.43 | 0.27 | 0.59 | 0.46 | 0.59 | 0.39 | 0.77 | 0.86 | 0.78 | 0.93 | 0.87 |  | Growth Rate [1, 10]: 0.89; Growth Rate [1, 12]: 0.82; Growth Rate [3, 7]: 0.84; Growth Rate [3, 12]: 0.96
2 | CNC[C@H](O)c1ccc(O)c(O)c1 [EPINEPHRINE] |  | 0.83 |  | 0.73 |  | 0.84 |  | 0.11 | -0.14 |  |  |  |  |  | 0.63 | 0.96 | 0.71 | 0.85 | 0.9 | 0.86 | Growth Rate [1, 13]: 0.03; Growth Rate [3, 13]: 0.36; Growth Rate [3, 7]: 0.43; Growth Rate [3, 12]: 0.94
3 | Cc1cc(Cn2nnc3c(-c4ccco4)nc(N)nc32)ccc1N [VIPADENANT] | 0.5 |  | 0.84 |  | 0.95 |  |  | 0.03 | 0.35 | 0.45 | 0.08 | 0.23 | 0.17 | -1 |  |  |  | 0.79 |  |  | Growth Rate [1, 13]: 0.37; Growth Rate [2, 10]: 0.81
4 | CN(C)CCn1cc(S(=O)(=O)c2cccc(F)c2)c2cccnc21.Cl.Cl | 0.35 |  | 0.9 |  |  |  |  | -0.06 | 0.07 | -0.17 | 0.56 | 0.65 | 0.75 |  | 0.56 | 0.76 | 0.98 | 0.8 |  | 0.86 | Growth Rate [1, 13]: 0.41; Growth Rate [2, 6]: 0.86; Growth Rate [2, 8]: 0.68; Growth Rate [2, 10]: 0.64; Growth Rate [2, 12]: 0.57; Growth Rate [3, 7]: 0.39
5 | O=c1ccn([C@@H]2O[C@H](COP(=O)([O-])OP(=O)([O-])OP(=O)([O-])OP(=O)([O-])OC[C@H]3O[C@@H](n4ccc(=O)[nH]c4=O)[C@H](O)[C@@H]3O)[C@@H](O)[C@H]2O)c(=O)[nH]1.[Na+].[Na+].[Na+].[Na+] [DIQUAFOSOL TETRASODIUM] | 0.4 | 0.69 | 0.63 | 0.73 |  | 0.72 | 0.85 | 0.39 |  |  |  |  | 0.89 |  | 0.17 |  |  | 0.88 | 0.92 | 0.93 | Growth Rate [1, 13]: 0.43; Growth Rate [1, 12]: 0.81; Growth Rate [2, 6]: 0.61; Growth Rate [3, 13]: -0.05; Growth Rate [3, 7]: 0.47
6 | Cn1cc(C(=O)OCC2CCN(CCNS(C)(=O)=O)CC2)c2ccccc21 |  | 0.81 |  | 0.43 |  | 0.29 | 0.35 | 0.81 |  | -0.25 | 0.1 | 0.33 | 0.43 |  |  | 0.45 | 0.95 |  | 0.89 |  | Growth Rate [1, 12]: 0.96; Growth Rate [2, 8]: 0.4; Growth Rate [2, 12]: 0.82
7 | O=C(O)CCn1c2c(c3ccccc31)C[C@H](NS(=O)(=O)c1ccc(F)cc1)CC2 [RAMATROBAN] |  |  | 0.71 | 0.91 | 0.72 |  |  | -0.24 | 0.9 |  |  |  |  | -1 |  |  | 0.9 | 0.98 | 0.9 | 0.97 | Growth Rate [1, 10]: 0.76; Growth Rate [2, 6]: 0.99; Growth Rate [3, 7]: 0.75
8 | Cc1onc(-c2ccccc2Cl)c1C(=O)N(C)c1ccc(Cl)cc1 | 0.62 |  |  |  |  |  |  | -0.53 | 0.86 |  |  |  |  |  |  | 0.56 | 0.67 |  | 0.85 |  | Growth Rate [3, 12]: 0.96
9 | CC(COc1ccccc1)N(CCCl)Cc1ccccc1.Cl (centres undefined) [PHENOXYBENZAMINE HYDROCHLORIDE] | 0.07 | 0.03 |  | 0.28 |  | 0.49 | 0.56 |  |  | 0.45 | 0.55 | 0.49 | 0.51 | 0.42 |  |  |  | 0.94 |  |  | Growth Rate [1, 10]: 1
10 | CNc1nc(NCc2ncccn2)c2c(-c3ccc4ncccc4c3)c[nH]c2n1 | 0.76 | 0.37 | 0.12 | -0.16 | -0.1 | -0.23 | -0.25 | 0.14 | 0.3 |  | 0.36 | -0.14 | 0.06 |  |  |  | 0.95 | 0.27 | 0.56 | 0.4 | Growth Rate [1, 13]: 0.21; Growth Rate [1, 10]: -0.28; Growth Rate [3, 13]: 0.67; Growth Rate [3, 12]: 0.42
11 | CN(c1ncccc1CNc1ccnc(-c2cc3cc(Cl)ccc3[nH]2)n1)S(C)(=O)=O |  | -0.71 | -0.53 | -0.48 | -0.31 | -0.36 | -0.24 |  |  | -0.63 | -0.43 | -0.12 | 0.15 | 1 | 0.59 |  | 0.71 | 0.58 | 0.74 | 0.61 | Growth Rate [1, 10]: -0.25; Growth Rate [1, 12]: -0.09; Growth Rate [2, 6]: -0.2; Growth Rate [2, 8]: -0.15; Growth Rate [2, 10]: -0.08; Growth Rate [2, 12]: 0.04; Growth Rate [3, 13]: -0.74; Growth Rate [3, 7]: 0.52; Growth Rate [3, 12]: 0.7
12 | c1ccc(NCc2ccc(CNc3ccccn3)cc2)nc1 | 0.94 | 0.66 | 0.7 | 0.44 | 0.83 | 0.98 |  |  |  |  | 0.23 | 0.88 | 0.76 | -1 |  |  |  | 0.76 | 0.98 | 0.93 | Growth Rate [2, 6]: 1; Growth Rate [2, 8]: 0.64
13 | C[C@@H](OC[C@@]1(c2ccccc2)CC[C@]2(CCC(=O)N2)CN1)c1cc(C(F)(F)F)cc(C(F)(F)F)c1 [ROLAPITANT] |  |  | 0.73 | 0.83 | 0.57 | 0.88 | 0.89 |  | 0.28 | -0.04 | 0.02 | 0.57 | 0.27 |  | -0.32 | 0.54 | 0.49 | 0.79 | 0.63 | 0.84 | Growth Rate [1, 10]: 0.81; Growth Rate [1, 12]: 1; Growth Rate [2, 8]: 0.68; Growth Rate [3, 12]: 0.64
14 | CC1=C(C)C(=O)C(C(C)(C)CC(=O)N(CCCCSC[C@H]2O[C@@H](n3cnc4c(N)ncnc43)[C@H](O)[C@@H]2O)Cc2cccc(-c3ccc(Cl)cc3)c2)=C(C)C1=O | -1 | 0.57 |  | 0.2 |  | 0.17 | 0.16 | 0.23 | -0.71 | -0.29 | 0.78 |  |  |  | 0.21 | 0.98 | 0.93 | 0.51 | 0.91 | 0.53 | Growth Rate [1, 13]: -0.9; Growth Rate [2, 6]: 0.84; Growth Rate [3, 7]: 0.36; Growth Rate [3, 12]: 0.95
15 | Fc1cccc(/C=N/N=C/c2cccc(F)c2)c1 | 0.2 | 0.72 |  | 0.77 |  | 0.89 | 0.96 |  |  | -0.08 | 0.7 |  | 0.91 | 0.84 |  | 0.83 | 0.84 |  |  |  | 
